Test [1] relates to U-87MG ATCC. The test can be described thus: (§1) Cytotoxicity against human U87MG cells assessed as reduction in cell viability after 24 hrs by Z2 coulter counter method. The class given is functional, cell-based. To be noted: TDE = time-dependent effect.
The nature of test [2]: (§2) Cytotoxicity against human U87MG cells assessed as reduction in cell viability after 48 hrs by Z2 coulter counter method. The class given is functional, cell-based, U-87MG ATCC. The following applies: U-87 MG.
In test [3] the test system is U-87MG ATCC. Described as §2. The class given is functional, cell-based. To be noted: TDE = time-dependent effect.
Test [4] in a line: (§3) Cytotoxicity against human U87MG cells assessed as reduction in cell viability after 72 hrs by Z2 coulter counter method. The following applies: U-87 MG. The class given is functional, cell-based, U-87MG ATCC.
For test [5], the system named is U-87MG ATCC. The description is as §3. The following applies: TDE = time-dependent effect. In kind it is functional, cell-based.
Test [6] concerns U-87MG ATCC. Kind of test: Cytotoxicity against human U87MG cells assessed as reduction in cell viability by Z2 coulter counter method. In kind it is functional, cell-based. The following applies: TDE = time-dependent effect.
The nature of test [7]: as §1. In kind it is functional, cell-based, U-87MG ATCC. To be noted: U-87 MG.
Test [8] relates to HeLa. The test can be described thus: Cytotoxicity against human HeLa cells assessed as reduction in cell viability after 24 hrs by Z2 coulter counter method. The class given is functional, cell-based.
Test [9] can be described thus: Cytotoxicity against human HN13 cells assessed as reduction in cell viability after 24 hrs by Z2 coulter counter method. In kind it is functional, cell-based. To be noted: WSU-HN13, 24 h.
The test system of test [10] is MDA-MB-231. The test can be described thus: Cytotoxicity against human MDA-MB-231 cells assessed as reduction in cell viability after 24 hrs by Z2 coulter counter method. To be noted: MDA-MB-231, 24 h. The class given is functional, cell-based.
For test [11], the system named is MCF7. The test can be described thus: Cytotoxicity against human MCF7 cells assessed as reduction in cell viability after 24 hrs by Z2 coulter counter method. The class given is functional, cell-based. The following applies: MCF7, 24 h.
Test [12] has as its system HeLa. The test can be described thus: Cytotoxicity against human HeLa cells assessed as reduction in cell viability after 48 hrs by Z2 coulter counter method. The class given is functional, cell-based.
Test [13] in a line: Cytotoxicity against human HN13 cells assessed as reduction in cell viability after 48 hrs by Z2 coulter counter method. In kind it is functional, cell-based. The following applies: WSU-HN13, 48 h.
Test [14] relates to MDA-MB-231. The test can be described thus: Cytotoxicity against human MDA-MB-231 cells assessed as reduction in cell viability after 48 hrs by Z2 coulter counter method. In kind it is functional, cell-based. To be noted: MDA-MB-231, 48 h.
Test [15] has as its system MCF7. The test can be described thus: Cytotoxicity against human MCF7 cells assessed as reduction in cell viability after 48 hrs by Z2 coulter counter method. In kind it is functional, cell-based. To be noted: MCF7, 48 h.
The test system of test [16] is HeLa. Kind of test: Cytotoxicity against human HeLa cells assessed as reduction in cell viability after 72 hrs by Z2 coulter counter method. The class given is functional, cell-based.
Test [17] in a line: Cytotoxicity against human HN13 cells assessed as reduction in cell viability after 72 hrs by Z2 coulter counter method. In kind it is functional, cell-based. To be noted: WSU-HN13, 72 h.
Test [18] concerns MDA-MB-231. The test can be described thus: Cytotoxicity against human MDA-MB-231 cells assessed as reduction in cell viability after 72 hrs by Z2 coulter counter method. The class given is functional, cell-based. The following applies: MDA-MB-231, 72 h.
For test [19], the system named is MCF7. Kind of test: Cytotoxicity against human MCF7 cells assessed as reduction in cell viability after 72 hrs by Z2 coulter counter method. The class given is functional, cell-based. To be noted: MCF7, 72 h.

Consider `O=c1[nH]cc(F)c(=O)[nH]1` [FLUOROURACIL], for which the Activity result in the test on U-87MG ATCC [1], in the test with U-87MG ATCC [3], in the test with U-87MG ATCC [5] and in the test on U-87MG ATCC [6] was “tde” in each case. Also, the values for the IC50 in [2] and in test [4] were 220 µM and 18.2 µM, respectively.
As to `O=C(Nc1ccc(Nc2ccc(OC3CCNCC3)cc2)cc1)c1cccc(-n2nc(C(=O)Nc3ccc(Nc4ccc(OC5CCNCC5)cc4)cc3)c3c2C(=O)NCC3)c1`, the IC50 (usually the point on the concentration scale where inhibition reaches its midpoint) in [7] stood at 60 µM; with HeLa [8], 17.6 µM; in test [9], 30.6 µM; in the test with MDA-MB-231 [10], 55 µM; in the test on MCF7 [11], 78.3 µM; with HeLa [12], 17.6 µM. The IC50 in test [2] worked out at 44.4 µM; in test [13], 27 µM; in the test with MDA-MB-231 [14], 42.6 µM; with MCF7 [15], 32.9 µM; with HeLa [16], 16 µM; in test [4], 33.5 µM. The results for the IC50 (in test [17]; in the test with MDA-MB-231 [18]; in the test on MCF7 [19]) were 26.1 µM, 28.9 µM and 10.6 µM, respectively.
On to `Cn1c(=O)n(-c2ccc(C(C)(C)C#N)cc2)c2c3cc(-c4cnc5ccccc5c4)ccc3ncc21` [DACTOLISIB], for which the values for the IC50 in [7], in test [2] and in [4] were 825 µM, 0.6 µM and 0.16 µM, respectively. Also, the Activity entry in the test on U-87MG ATCC [1], in the test on U-87MG ATCC [3], with U-87MG ATCC [5] and in the test on U-87MG ATCC [6] was “tde” each time.

The values above are taken from ChEMBL document CHEMBL3804773, “Straightforward synthesis of a novel ring-fused pyrazole-lactam and in vitro cytotoxic activity on cancer cell lines” (Eur J Med Chem, 2016).
